This passage reports IC50 results from patent US5837687A, “Azapeptide derivative” (Fujirebio Inc., priority 1994, dated 1998).

For this assay, the target named is T1, NKA receptor (Mesocricetus auratus, UniProt P51144).
T1 construct: from tissue; host or cells: hamster respiratory tract (trachea) ring specimens
T1 sequence (P51144 1-384): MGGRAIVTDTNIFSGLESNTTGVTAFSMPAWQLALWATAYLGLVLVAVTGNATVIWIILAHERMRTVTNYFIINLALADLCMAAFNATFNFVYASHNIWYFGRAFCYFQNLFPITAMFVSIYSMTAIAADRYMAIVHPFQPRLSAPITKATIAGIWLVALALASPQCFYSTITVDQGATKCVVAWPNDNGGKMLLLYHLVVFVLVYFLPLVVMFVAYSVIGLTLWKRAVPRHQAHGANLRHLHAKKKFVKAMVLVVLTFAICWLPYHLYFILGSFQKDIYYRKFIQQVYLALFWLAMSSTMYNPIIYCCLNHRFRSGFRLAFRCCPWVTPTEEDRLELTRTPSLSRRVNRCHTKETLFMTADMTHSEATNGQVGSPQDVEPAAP
Description: Activity to constriction of hamster respiratory tracts caused by NKA (isolated tissue, tension). It is filed as cell-based. The procedure:
The activity of the azapeptide derivative of the present invention to a NKA receptor was evaluated by the following method.
(1) Activity to constriction of hamster respiratory tracts caused by NKA
Respiratory tracts were taken out from male Syrian strain Golden hamsters having a body weight of 100 to 180 g, and cyclic specimens having a width of 3 to 6 mm were prepared. The specimens were incubated at 37° C. and suspended by loading a static tension of 0.5 g, in a reaction tank charged with 15 ml of a Tyrode solution (137 mM of NaCl, 2.7 mM of KCl, 1.8 mM of CaCl2, 1.02 mM of MgCl2, 11.9 mM of NaHCO3, 0.42 mM of NaH2 PO4 and 5.5 mM of glucose) in which 95% O2 -5% CO2 had been passed.
The compound to be tested was charged into the reaction tank and maintained for 5 minutes. 1×10^-7 M of NKA was charged into the reaction tank, and tension caused thereby was recorded. The examined effect of the tested compound as an antagonist was shown by IC50.
A word on the IC50: it is the concentration needed to halve the response being measured. High values mean weaker potency, low ones greater potency. Compound `CC(C)(C)OC(=O)N[C@@H](CC(=O)OCc1ccccc1)C(=O)N[C@@H](CCC(N)=O)C(=O)N[C@@H](Cc1c[nH]c2ccccc12)C(=O)NN(Cc1ccccc1)C(=O)NCCO` [Example 24 (2), Boc-Asp(OBzl)-Gln-Trp-AzPhe-NH(CH2)2 OH] came in with an IC50 of 46 nM.
`CC(C)(C)OC(=O)N[C@@H](CCS(C)(=O)=O)C(=O)N[C@@H](Cc1c[nH]c2ccccc12)C(=O)NN(Cc1ccccc1)C(=O)NCCOCc1ccccc1` [Example 9, Boc-Met(O2)-Trp-AzPhe-NH (CH2)2 OCH2 Ph] showed an IC50 of 1.4 nM.
Consider `CC(C)c1ccc(CN(NC(=O)[C@H](Cc2c[nH]c3ccccc23)NC(=O)[C@H](CCC(N)=O)NC(=O)NC(C)(C)C)C(=O)NCCOCc2ccccc2)cc1` [Example 36 (3), t-Bu-NHCO-Gln-Trp-AzPhe(4-iPr)-NH(CH2)2 OCH2 Ph], for which it took 69 nM to reach half-maximal inhibition (IC50).
For the compound `CC(C)(C)OC(=O)N[C@@H](CC(=O)OCc1ccccc1)C(=O)N[C@@H](CCC(N)=O)C(=O)N[C@@H](Cc1c[nH]c2ccccc12)C(=O)NN(Cc1ccccc1)C(=O)NCCc1ccccc1` [Example 19 (3), Boc-Asp(OBzl)-Gln-Trp-AzPhe-NH(CH2)2 Ph], the concentration for half-maximal inhibition (IC50) was 5.3 nM.
Consider `CC(C)(C)OC(=O)N[C@@H](CCC(N)=O)C(=O)N[C@@H](Cc1c[nH]c2ccccc12)C(=O)NN(Cc1ccccc1)C(=O)NCCOCc1ccc(F)cc1` [Example 18 (2), Boc-Gln-Trp-AzPhe-NH(CH2)2 OCH2 Ph(4-F)], for which the IC50 came out at 5.6 nM. The IC50 values of the last two compounds are within 1.5-fold of each other.
On to `CC(C)(C)NC(=O)N[C@@H](CCC(N)=O)C(=O)N[C@@H](Cc1c[nH]c2ccccc12)C(=O)NN(Cc1ccccc1)C(=O)NCCOC(c1ccccc1)c1ccccc1` [Example 44 (2), t-Bu-NHCO-Gln-Trp-AzPhe-NH(CH2)2 O-benzhydryl], for which the midpoint of inhibition, the IC50, lay at 230 nM. This IC50 is about 41-fold higher than that of the compound before.
Compound `NC(=O)CC[C@H](NC(=O)C1CCCC1)C(=O)N[C@@H](Cc1c[nH]c2ccccc12)C(=O)NN(Cc1ccccc1)C(=O)NCCOCc1ccccc1` [Example 5, cyPent-CO-Gln-Trp-AzPhe-NH(CH2)2 OCH2 Ph] registered a 50% inhibitory concentration (IC50) of 2.2 nM.
Next, `CC(C)(C)OC(=O)N[C@@H](CC(=O)OCc1ccccc1)C(=O)N[C@@H](CCC(N)=O)C(=O)N[C@@H](Cc1c[nH]c2ccccc12)C(=O)NN(Cc1ccccc1)C(N)=O` [Example 1 (3), Boc-Asp(OBzl)-Gln-Trp-AzPhe-NH2]: 45 nM.
Compound `CNC(=O)N(Cc1ccccc1)NC(=O)[C@H](Cc1c[nH]c2ccccc12)NC(=O)[C@H](CCC(N)=O)NC(=O)[C@H](CC(=O)OCc1ccccc1)NC(=O)OC(C)(C)C` [Example 23 (3), Boc-Asp(OBzl)-Gln-Trp-AzPhe-NHCH3] had an IC50 of 78 nM.
The same measure for `CC(C)(C)OC(=O)N[C@@H](CC(=O)OCc1ccccc1)C(=O)N[C@@H](CCC(N)=O)C(=O)N[C@H](Cc1c[nH]c2ccccc12)C(=O)NN(Cc1ccccc1)C(N)=O` [Example 27 (3), Boc-Asp(OBzl)-Gln-D-Trp-AzPhe-NH2]: 990 nM; for `CC(C)(C)OC(=O)N[C@@H](CC(=O)OCc1ccccc1)C(=O)N[C@@H](CCC(N)=O)C(=O)N[C@@H](Cc1c[nH]c2ccccc12)C(=O)NN(Cc1ccccc1)C(=O)OCc1ccccc1` [Example 28 (3), Boc-Asp(OBzl)-Gln-Trp-AzPhe-OBzl]: 27 nM; for `CC(C)(C)NC(=O)N[C@@H](CCC(N)=O)C(=O)N[C@@H](Cc1c[nH]c2ccccc12)C(=O)NN(Cc1ccc(F)cc1)C(=O)NCCOCc1ccccc1` [Example 31, t-Bu-NHCO-Gln-Trp-AzPhe(4-F)-NH(CH2)2 OCH2 Ph]: 0.42 nM.
In turn, `CC(C)(C)OC(=O)N[C@@H](CC(=O)OCc1ccccc1)C(=O)N[C@@H](CCC(N)=O)C(=O)N[C@@H](Cc1c[nH]c2ccccc12)C(=O)NN(Cc1ccccc1)C(=O)N1CCOCC1` [Example 26 (3), Boc-Asp(OBzl)-Gln-Trp-AzPhe-M] yielded an IC50 of 830 nM. This IC50 is about 2000-fold higher than that of the compound before.
The same measure for `CC(C)(C)OC(=O)N[C@@H](Cc1c[nH]c2ccccc12)C(=O)NN(Cc1ccccc1)C(=O)NCCOCc1ccccc1` [Example 2 (1), Boc-Trp-AzPhe-NH(CH2)2 OCH2 Ph]: 310 nM.
